Source: patent US20030139397A1, “Arthropodicidal carboxanilides” (priority 2002, published 2003)

Tested on: tobacco budworm (Heliothis virescens)
Details: in vivo
Method: See Index Table A for compound descriptions. The following abbreviations are used in the Index Table that follows: n is normal, i is iso, Pr […], and Ph is phenyl. The abbreviation “Ex.” stands for “Example” and is followed by a number indicating in which example the compound is prepared.
Test units, each consisting of a H.I.S. (high impact styrene) tray with 16 cells were prepared. Wet filter paper and approximately 8 cm^2 of lima bean leaf were placed into twelve of the cells. A 0.5-cm layer of wheat germ diet was placed into the four remaining cells. Fifteen to twenty third-instar larvae of fall armyworm (Spodoptera frugiperda) were placed into a 230-mL (8-ounce) plastic cup. Solutions of each of the test compounds in 75:25 acetone-distilled water solvent were sprayed into the tray and cup. Spraying was accomplished by passing the tray and cup on a conveyer belt directly beneath a flat fan hydraulic nozzle which discharged the spray at a rate of 0.138 kilograms of active ingredient per hectare (about 0.13 pounds per acre) at 207 kPa (30 p.s.i.). The insects were transferred from the 230-mL cup to the H.I.S. tray (one insect per cell). The trays were covered and held at 27° C. and 50% relative humidity for 48 hours, after which time readings were taken on the twelve cells with lima bean leaves. The four remaining cells were read at 6-8 days for delayed toxicity.
The test procedure of TEST A was repeated for determining efficacy against third-instar larvae of the tobacco budworm (Heliothis virescens) except that three 230-mL (8-ounce) plastic cups with wheat germ diet were used in place of the H.I.S. tray, with each cup pre-infected with five third-instar larvae.

Compound | mortality levels [%]
CC(C)C12Cc3cc(Cl)ccc3C1=NC(C(=O)Nc1ccc(OC(F)(F)F)cc1)=NN2 (stereo not drawn) [Compound 15] | ≥ 80
CN1N=C(C(=O)Nc2ccc(C(F)(F)F)cc2)N=C2c3ccc(F)cc3CC21C (stereo not drawn) [Compound 19] | ≥ 80
CCCC12Cc3cc(C(F)(F)F)ccc3C1=NC(C(=O)Nc1ccc(OC(F)(F)F)cc1)=NN2C (stereo not drawn) [Compound 8] | ≥ 80
CC12Cc3cc(F)ccc3C1=NC(C(=O)Nc1ccc(OC(F)(F)F)cc1)=NN2 (stereo not drawn) [Compound 14] | ≥ 80
O=C(Nc1ccc(SC(F)(F)F)cc1)C1=NNC2(c3ccc(F)cc3)Cc3cc(F)ccc3C2=N1 (stereo not drawn) [Compound 22] | ≥ 80
CCCC12Cc3cc(C(F)(F)F)ccc3C1=NC(C(=O)Nc1ccc(C(F)(F)F)cc1)=NN2C (stereo not drawn) [Compound 7] | ≥ 80
CN1N=C(C(=O)Nc2ccc(OC(F)(F)F)cc2)N=C2c3ccc(C(F)(F)F)cc3CC21C (stereo not drawn) [Compound 10] | ≥ 80
CCCC12Cc3cc(Cl)ccc3C1=NC(C(=O)Nc1ccc(Br)cc1)=NN2 (stereo not drawn) [Compound 2] | ≥ 80
CCCC12Cc3cc(C(F)(F)F)ccc3C1=NC(C(=O)Nc1ccc(OC(F)(F)F)cc1)=NN2C(C)=O (stereo not drawn) [Compound 12] | ≥ 80
CCCC12Cc3cc(Cl)ccc3C1=NC(C(=O)Nc1ccc(C(F)(F)F)cc1)=NN2C (stereo not drawn) [Compound 5] | ≥ 80
O=C(Nc1ccc(OC(F)(F)F)cc1)C1=NNC2(c3ccc(F)cc3)Cc3cc(F)ccc3C2=N1 (stereo not drawn) [Compound 13] | ≥ 80
CCCC12Cc3cc(Cl)ccc3C1=NC(C(=O)Nc1ccc(SC(F)(F)F)cc1)=NN2 (stereo not drawn) [Compound 20] | ≥ 80
CCCC12Cc3cc(Cl)ccc3C1=NC(C(=O)Nc1ccc(OC(F)(F)F)cc1)=NN2C (stereo not drawn) [Compound 6] | ≥ 80
CN1N=C(C(=O)Nc2ccc(OC(F)(F)F)cc2)N=C2c3ccc(F)cc3CC21C (stereo not drawn) [Compound 17] | ≥ 80
CN1N=C(C(=O)Nc2ccc(C(F)(F)F)cc2)N=C2c3ccc(C(F)(F)F)cc3CC21C (stereo not drawn) [Compound 9] | ≥ 80
CCCC12Cc3cc(C(F)(F)F)ccc3C1=NC(C(=O)Nc1ccc(SC(F)(F)F)cc1)=NN2 (stereo not drawn) [Compound 21] | ≥ 80
CCCC12Cc3cc(C(F)(F)F)ccc3C1=NC(C(=O)Nc1ccc(C(F)(F)F)cc1)=NN2C(C)=O (stereo not drawn) [Compound 11] | ≥ 80
COC(=O)N1N=C(C(=O)Nc2ccc(OC(F)(F)F)cc2)N=C2c3ccc(F)cc3CC21c1ccc(F)cc1 (stereo not drawn) [Compound 16] | ≥ 80
